The values that follow come from ChEMBL document CHEMBL1201862, “PubChem BioAssay data set” (2004).

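Step 1: Grow cells in 96-well plates. Step 2: Expose to compound for 48 hours at 5 concentrations. Step 3: Interpolate endpoints linearly; if unreached, use highest concentration. GI50: concentration for 50% inhibition of growth.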 Activity calls are given as the source filed them. Rule as the data show it: active = GI50 up to about 1.1 µM and inactive = higher.

Test systems include RXF 631; LXFL 529; HOP-18; DMS-273; PC-3; BT-549; Hs-578T; MDA-MB-231; DU-145.
What all share (assay): inhibition of tumour cell growth, NCI panel, 48 h

In the case of `C=C1C2=C(CCCC2)C(=O)OC12CCCCC2`, the GI50 was 72.1 µM (inactive) in the assay on RXF 631, 40.7 µM (inactive) with LXFL 529, > 100 µM (inactive) in the assay on HOP-18 and 51.4 µM (inactive) in the assay on DMS-273.

For `CC(=O)Oc1ccccc1C(=O)C1c2cccc(O)c2C(=O)c2c(O)cccc21`, the GI50 is 3.01 µM (inactive) with RXF 631, 1.29 µM (inactive) in the assay with LXFL 529, 2.16 µM (inactive) in the assay with HOP-18 and 1.24 µM (inactive) with DMS-273.

`c1ccc2c(NCCCCCCCCNc3cccc4ccccc34)cccc2c1`: the GI50 is 18.9 µM (inactive) in the assay with RXF 631, 18.6 µM (inactive) in the assay with LXFL 529, 20.1 µM (inactive) in the assay with HOP-18 and 29.6 µM (inactive) in the assay with DMS-273.

For `O=S(=O)(c1ccc(I)cc1)N(c1ccccc1)S(=O)(=O)C(F)(F)C(F)(F)C(F)(F)C(F)(F)F`, the GI50 with PC-3 was 38.7 µM (inactive); in the assay on BT-549, > 100 µM (inactive); in the assay with Hs-578T, 30.2 µM (inactive); with MDA-MB-231, 23 µM (inactive); in the assay with DU-145, 46.7 µM (inactive).

Regarding `Cc1ccc(SSCCCCCS(=O)O)cc1`, the GI50 with RXF 631 was 25.9 µM (inactive); in the assay with LXFL 529 it was 14.6 µM (inactive).

On to `CC1(Cl)CC2C(CC1Sc1nnnn1-c1ccccc1)C2(C)C` (stereo not drawn), for which the GI50 with LXFL 529 is 60.3 µM (inactive); with DMS-273 it was 71.9 µM (inactive).

Turning to `CC(=O)Oc1ccccc1[C@H]1CC(=O)C[C@H](c2ccccc2OC(C)=O)C12C(=O)c1ccccc1C2=O`, the GI50 in the assay with PC-3 is 17.5 µM (inactive); in the assay with BT-549, 24.9 µM (inactive); in the assay with Hs-578T, 27.7 µM (inactive); in the assay on MDA-MB-231 it was 27.1 µM (inactive); with DU-145, 35.4 µM (inactive).

Regarding `COc1c(O)c(C=O)c2c(O)c(-c3c(C)cc4c(C(C)C)c(OC)c(O)c(C=O)c4c3O)c(C)cc2c1C(C)C` [6,6'-METHOXYGOSSYPOL], the GI50 was 3.96 µM (inactive) in the assay with LXFL 529 and 5.11 µM (inactive) in the assay with DMS-273.

For `CSCC[C@@H](NC(=O)[C@H](CC(C)C)NC(=O)C(Cc1cnc[nH]1)NC(=O)CNC(=O)[C@@H](NC(=O)[C@H](C)NC(=O)[C@H](Cc1cn(C=O)c2ccccc12)NC(=O)[C@H](CCC(N)=O)NC(=O)[C@@H](N)CC(N)=O)C(C)C)C(N)=O` (stereo partly drawn), the GI50 with HOP-18 and in the assay with DMS-273 was > 100 µM (inactive) each time.

As for `COc1ccc(C(O)CNC(=O)c2ccccc2)cc1` (stereo not drawn), the GI50 in the assay on PC-3, in the assay on BT-549, in the assay with Hs-578T, in the assay on MDA-MB-231 and in the assay with DU-145 was > 100 µM (inactive) throughout.

Turning to `NCCCCCC(CCN)SCC1OC(n2cnc3c(N)ncnc32)C(O)C1O` (stereo not drawn), the GI50 in the assay with HOP-18 is 6.76 µM (inactive); in the assay with DMS-273, 369 µM (inactive).

As for `CCc1n[nH]c(=O)n1CC`, the GI50 in the assay on BT-549, in the assay on Hs-578T, in the assay on MDA-MB-231 and in the assay with DU-145 was > 100 µM (inactive) each time.

`COc1ccccc1-c1cc(O)c2cc(C)cnc2n1`: the GI50 was 45.5 µM (inactive) with BT-549, 43.4 µM (inactive) with Hs-578T, 67.3 µM (inactive) in the assay with MDA-MB-231 and 47.9 µM (inactive) in the assay with DU-145.

On to `O=C(CC1Sc2ccccc2NC1=O)Nc1ccccc1[N+](=O)[O-]` (stereo not drawn), for which the GI50 with RXF 631, in the assay on LXFL 529, with HOP-18 and in the assay on DMS-273 was > 100 µM (inactive) each time.

In the case of `COc1ccccc1/C=C1\S/C(=N/Nc2nc(C)c(C(C)=O)s2)NC1=O`, the GI50 in the assay on PC-3 was 43.6 µM (inactive); in the assay on Hs-578T, 25.4 µM (inactive); in the assay with MDA-MB-231, 22.8 µM (inactive); with DU-145 it was 69.7 µM (inactive).

Regarding `CCCCSCCC(N)P(=O)(O)O` (stereo not drawn), the GI50 in the assay on PC-3, with Hs-578T, with MDA-MB-231 and in the assay on DU-145 was > 100 µM (inactive) each time.

Consider `Cc1ccc(N2Cc3c(ccc4ccccc34)OP2(=S)N2CCCC2)cc1` (stereo not drawn), for which the GI50 in the assay with HOP-18 and in the assay on DMS-273 was > 100 µM (inactive) each time.

Regarding `COc1ccc(CCn2nccc2C)cc1`, the GI50 in the assay on PC-3, in the assay with BT-549, in the assay with Hs-578T, in the assay with MDA-MB-231 and in the assay with DU-145 was > 100 µM (inactive) throughout.

Consider `COc1cccc(-c2c(C#N)c(N)nc3c2CCS(=O)(=O)c2ccc(C)cc2-3)c1`, for which the GI50 in the assay on PC-3 was 89.1 µM (inactive); in the assay on BT-549, > 100 µM (inactive); in the assay with Hs-578T, > 100 µM (inactive); with MDA-MB-231, > 100 µM (inactive); in the assay with DU-145, > 100 µM (inactive).

`c1ccc(C2=NNC3c4ccccc4-c4ccccc4N3C2)cc1` (stereo not drawn): the GI50 in the assay on PC-3 was 23.7 µM (inactive); with BT-549, 33.3 µM (inactive); with Hs-578T, 34.8 µM (inactive); with MDA-MB-231, 26 µM (inactive); in the assay with DU-145 it was 40.5 µM (inactive).

As to `O=C1C(Cl)N(c2ccc([N+](=O)[O-])cc2)C1c1c[nH]c2ccccc12` (stereo not drawn), in the assay with LXFL 529, the GI50 is 36.2 µM (inactive).

On to `Cc1[nH]c(=O)[nH]c(=O)c1/C=C/C(=O)NC(CO)CC(C)C` (stereo not drawn), for which the GI50 with HOP-18 was 254 µM (inactive); in the assay with DMS-273, > 375 µM (inactive).

Turning to `Clc1ccc(C2ON=C(c3ccccc3)N2C23CC4CC(CC(C4)C2)C3)c(Cl)c1` (stereo not drawn), the GI50 in the assay with PC-3, with Hs-578T, in the assay with MDA-MB-231 and in the assay on DU-145 was > 10 µM (inactive) in each case.

For the compound `O=NN(CC1(O)OCC(O)C(O)C1O)C(Cc1c[nH]c2ccccc12)C(=O)O` (stereo not drawn), the GI50 with RXF 631 and in the assay with DMS-273 was > 100 µM (inactive) each time.

`Cc1ccc2c3c1O[C@H]1c4[nH]c5ccccc5c4C[C@@]4(O)[C@@H](C2)N(CC2CC2)CC[C@]314`: the GI50 was 12.1 µM (inactive) in the assay with PC-3, 18.3 µM (inactive) with BT-549, 19.4 µM (inactive) in the assay with MDA-MB-231 and 16.1 µM (inactive) in the assay with DU-145.

Consider `CCN(CC)Cc1cc(Nc2c3ccccc3nc3c2[nH]c2ccccc23)ccc1O`, for which the GI50 in the assay with RXF 631 was 1.8 µM (inactive); with LXFL 529 it was 1.39 µM (inactive); with HOP-18, 1.6 µM (inactive); with DMS-273, 0.565 µM (active).

In the case of `COc1cccc(CCn2c(N)c(-c3cc(Cl)cc(Cl)c3)c3ccc([N+](=O)[O-])cc3c2=O)c1`, the GI50 with PC-3 is 3.1 µM (inactive); in the assay with BT-549 it was 3.53 µM (inactive); with Hs-578T it was 3.19 µM (inactive); with MDA-MB-231 it was 4.68 µM (inactive); in the assay on DU-145, 2.7 µM (inactive).

In the case of `COc1ccc(-c2cc(-c3ccccc3)c3c(n2)-c2ccccc2NC(=O)C3)cc1`, the GI50 with PC-3 is 28.3 µM (inactive); with BT-549, > 100 µM (inactive); in the assay on Hs-578T it was 5.15 µM (inactive); in the assay with MDA-MB-231, 25.4 µM (inactive); in the assay on DU-145, > 100 µM (inactive).

On to `Cc1n(CC(=O)c2ccc([N+](=O)[O-])cc2)c2c([n+]1CC(C)C)C(=O)c1ccccc1C2=O`, for which the GI50 in the assay with HOP-18 was < 0.0184 µM (active); in the assay on DMS-273, < 0.01 µM (active).
